The values below come from patent publication US20080188564A1, “Insecticidal and Nematicidal Compositions and Methods of Use” (priority 2004, published 2008).

In one data set the test system is M. incognita. Description: Toxicity of DIDS on M. incognita infective juveniles. It is filed as in vivo, Meloidogyne incognita. As to the method: Meloidogyne incognita cultures were maintained on potted tomatoes (c.v. Rutgers) in a greenhouse. Infective juvenile nematodes for analysis were extracted as eggs from infected tomato roots by shaking the roots in 1% bleach for 2 minutes. Eggs were captured in a 500-mesh sieve, rinsed in water and placed in Baerman funnels. When the eggs hatched, the juveniles moved downward in the funnels, and hatched infective juveniles were collected after 48 hours.
(§1) We determined the toxicity of DIDS to infective juveniles of M. incognita and H. bacteriophora. Infective juveniles were assayed because they represent the only free-living life stage for both nematode species; adults live within their respective hosts and are not amenable to this type of test. Further, the infective juvenile of M. incognita would likely be the target of a nematicide based upon this material. The tests were conducted in either 35 mm Petri dishes or 96 well plates, holding the test material dissolved in DMSO and dispersed into tap water. Each dish was considered a replicate and contained 10-30 nematodes of either species. Each well of the 96-well plates had one nematode.
DIDS-H.b.=DIDS-exposed H. bacteriophora; DIDS-M.i.=DIDS-exposed Meloidogyne incognita. DIDS was dissolved in DMSO, and DMSO-M.i.=DMSO-exposed Meloidogyne incognita. Average percentage mortality for each treatment group was calculated from 5 replicates containing 10 nematodes each. Bars are means±SEM.
(§2) To further characterize the nematode-inhibiting effect of a stilbene compound (DIDS), experiments were performed as described above, using a 96 well plate and 10-30 nematodes per well, and using the plant parasite M. incognita and the free-living C. elegans. The results are depicted in Tables 1 and 2.

In the next data set the test system is C. elegans. Put plainly: Toxicity of DIDS on C. elegans (96 well plate). The class given is in vivo, Caenorhabditis elegans. As to the method: as §1, §2
Another data set has as its system Meloidogyne incognita. The conditions noted are these: at 100 ug/ml; cited from earlier work.
The subject of the next data set is Caenorhabditis elegans. The conditions noted are these: at 100 ug/ml; cited from earlier work.
A further data set relates to H. megidis. The settings on record: concentrations up to 200 ug/ml; cited from earlier work.
For data set [1], the system named is voltage-gated chloride channels. The settings on record: Torpedo membranes vs rat brain membranes; cited from earlier work.

SMILES strings stand for the structures.

As usually defined, the LC50 is the concentration lethal to half of the exposed cells or organisms. A low value points to greater toxicity.

As for `O=S(=O)(O)c1cc(N=C=S)ccc1/C=C/c1ccc(N=C=S)cc1S(=O)(=O)O` [DIDS, trans-4,4′-diisothiocyanatostilbene-2,2′-disulfonic acid], the LC50 was 160.03 ppm with M. incognita (1-day (24 hr)); 97.91 ppm with M. incognita (2-day (48 hr)); 37.84 ppm with M. incognita (3-day (72 hr)); 17.07 ppm with M. incognita (5-day (120 hr)); 11.58 ppm in the data set on M. incognita (7-day (168 hr)); 196.13 ppm with C. elegans (1-day (24 hr)). In addition, the LC50 came to 83.70 ppm in the data set with C. elegans (2-day (48 hr)), 31.53 ppm in the data set on C. elegans (3-day (72 hr)), 15.69 ppm in the data set with C. elegans (5-day (120 hr)) and 10.67 ppm with C. elegans (7-day (168 hr)). Moreover, the Slope with M. incognita (1-day (24 hr)) amounted to 1.77 ± 0.50; in the data set with M. incognita (2-day (48 hr)), 1.52 ± 0.30; in the data set with M. incognita (3-day (72 hr)), 1.83 ± 0.30; in the data set with M. incognita (5-day (120 hr)) it was 2.75 ± 0.36; with M. incognita (7-day (168 hr)) it was 4.04 ± 0.59; in the data set on C. elegans (1-day (24 hr)), 1.43 ± 0.35. Also, the Slope with C. elegans (2-day (48 hr)) is 1.45 ± 0.29; in the data set on C. elegans (3-day (72 hr)), 1.87 ± 0.28; in the data set with C. elegans (5-day (120 hr)), 2.86 ± 0.36; in the data set with C. elegans (7-day (168 hr)), 4.57 ± 0.71. In addition, the “toxicity (mortality) to nematodes” value in the data set on M. incognita (24 hr, 100 ug/ml (200 uM), in DMSO/tap water) was “paralytic/lethal”. Moreover, the time until toxic with M. incognita (DIDS at 10 ppm) and in the data set with C. elegans (DIDS at 10 ppm) was 2 days each time. Further, the time to paralysis with M. incognita (plant parasite nematode) and in the data set with C. elegans (free-living nematode) was 2 days each time.
In the case of `CC(C)c1c(O)cc(C=Cc2ccccc2)cc1O` [DST, 3,5-dihydroxy-4-isopropylstilbene], the 24 hr lethality with Meloidogyne incognita and in the data set with Caenorhabditis elegans was 100% in each case. The “sensitivity to DST” value in the data set on H. megidis is reported as “completely insensitive”.
Take `Cl[C@H]1[C@H](Cl)[C@@H](Cl)[C@@H](Cl)[C@H](Cl)[C@H]1Cl` [lindane]: the “potency as inhibitor of [35S]TBPS binding, Torpedo membranes relative to rat brain” value in data set [1] is “about 4 fold”.
